Results taken from PubChem BioAssay (NCI).
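Interpolation was linear, between the two tested concentrations surrounding the appropriate level; five concentrations were tested over 48 hours in 96-well plates. The concentration for 50% growth inhibition is given as GI50. The concentration for full growth arrest is given as TGI.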

Experiments:
Assay in all cases: NCI tumour cell line growth inhibition, 48 h
COLO 205 colon = system: COLO 205 colon
HCC-2998 colon = system: HCC-2998 colon
HCT-116 colon = system: HCT-116 colon
HOP-92 NSCLC = system: HOP-92 NSCLC
HT29 colon = system: HT29 colon
NCI-H460 lung = system: NCI-H460 lung
NCI/ADR-RES ovarian = system: NCI/ADR-RES ovarian
OVCAR-3 ovarian = system: OVCAR-3 ovarian
OVCAR-5 ovarian = system: OVCAR-5 ovarian
SW-620 colon = system: SW-620 colon

Cc1cc(C)c2nc3nc(C)cc(C)c3c(N)c2c1
GI50 (COLO 205 colon): 2.78 µM
TGI (COLO 205 colon): 11.8 µM
GI50 (HCC-2998 colon): 9.61 µM
TGI (HCC-2998 colon): 22.5 µM
GI50 (HCT-116 colon): 3.12 µM
TGI (HCT-116 colon): 15 µM
GI50 (HOP-92 NSCLC): 3.23 µM
TGI (HOP-92 NSCLC): 19.7 µM
GI50 (HT29 colon): 2.49 µM
TGI (HT29 colon): 13.6 µM
GI50 (NCI-H460 lung): 3.15 µM
TGI (NCI-H460 lung): 11 µM
GI50 (NCI/ADR-RES ovarian): 6.88 µM
TGI (NCI/ADR-RES ovarian): 36.9 µM
GI50 (OVCAR-3 ovarian): 9.04 µM
TGI (OVCAR-3 ovarian): 39.9 µM
GI50 (OVCAR-5 ovarian): 4.3 µM
TGI (OVCAR-5 ovarian): 29.5 µM
GI50 (SW-620 colon): 3.4 µM
TGI (SW-620 colon): 21.4 µM

Cc1ccc(-c2nc(N)c(C#N)c3c2CCOc2c-3ccc3ccccc23)cc1
GI50 (COLO 205 colon): 0.418 µM
TGI (COLO 205 colon): > 100 µM
GI50 (HCC-2998 colon): 0.142 µM
GI50 (HCT-116 colon): 0.21 µM
GI50 (HOP-92 NSCLC): 0.334 µM
TGI (HOP-92 NSCLC): 7.44 µM
GI50 (HT29 colon): 0.387 µM
TGI (HT29 colon): 54.1 µM
GI50 (NCI-H460 lung): 0.332 µM
TGI (NCI-H460 lung): > 46.4 µM
GI50 (NCI/ADR-RES ovarian): 0.331 µM
TGI (NCI/ADR-RES ovarian): 31.5 µM
GI50 (OVCAR-3 ovarian): 0.069 µM
TGI (OVCAR-3 ovarian): 1.86 µM
GI50 (OVCAR-5 ovarian): 4.74 µM
TGI (OVCAR-5 ovarian): > 100 µM
GI50 (SW-620 colon): 1.76 µM
TGI (SW-620 colon): > 93.4 µM

Brc1ccccc1C=NC12CC3CC(CC(C3)C1)C2
TGI (COLO 205 colon): > 100 µM
TGI (HCC-2998 colon): > 100 µM
TGI (HCT-116 colon): > 100 µM
TGI (HOP-92 NSCLC): > 100 µM
TGI (HT29 colon): > 100 µM
TGI (NCI-H460 lung): > 100 µM
TGI (NCI/ADR-RES ovarian): > 100 µM
TGI (OVCAR-3 ovarian): > 100 µM
TGI (OVCAR-5 ovarian): > 100 µM
TGI (SW-620 colon): > 100 µM

H-HIIKKIRTWYRKAWHVLGKV-NH2
GI50 (COLO 205 colon): 2.11 µM
TGI (COLO 205 colon): 4.92 µM
GI50 (HCC-2998 colon): 3.88 µM
TGI (HCC-2998 colon): 31.2 µM
GI50 (HCT-116 colon): 17.5 µM
TGI (HCT-116 colon): 42 µM
GI50 (HOP-92 NSCLC): 2.11 µM
TGI (HOP-92 NSCLC): 6.75 µM
GI50 (HT29 colon): 14.8 µM
TGI (HT29 colon): > 100 µM
GI50 (NCI-H460 lung): 3.34 µM
TGI (NCI-H460 lung): 92.4 µM
GI50 (NCI/ADR-RES ovarian): 5.85 µM
TGI (NCI/ADR-RES ovarian): 28.5 µM
GI50 (OVCAR-3 ovarian): 10.4 µM
TGI (OVCAR-3 ovarian): 39.3 µM
GI50 (OVCAR-5 ovarian): 6.22 µM
TGI (OVCAR-5 ovarian): 20.5 µM
GI50 (SW-620 colon): 9.53 µM
TGI (SW-620 colon): > 100 µM

Cc1sc(NC2=NC(=O)/C(=C\c3ccccc3)S2)nc1-c1nc(NC2=NC(=O)/C(=C\c3ccccc3)S2)sc1C
GI50 (COLO 205 colon): 26.4 µM
TGI (COLO 205 colon): > 50 µM
GI50 (HCC-2998 colon): 14.2 µM
TGI (HCC-2998 colon): 39.9 µM
GI50 (HCT-116 colon): 9.31 µM
TGI (HCT-116 colon): 24.6 µM
GI50 (HOP-92 NSCLC): 12 µM
TGI (HOP-92 NSCLC): > 36.1 µM
GI50 (HT29 colon): 23.3 µM
TGI (HT29 colon): > 50 µM
GI50 (NCI-H460 lung): 15.5 µM
TGI (NCI-H460 lung): > 50 µM
GI50 (NCI/ADR-RES ovarian): 14.4 µM
TGI (NCI/ADR-RES ovarian): 43.8 µM
GI50 (OVCAR-3 ovarian): 9.84 µM
TGI (OVCAR-3 ovarian): 29.1 µM
GI50 (OVCAR-5 ovarian): 26.2 µM
TGI (OVCAR-5 ovarian): > 50 µM
GI50 (SW-620 colon): 16.7 µM
TGI (SW-620 colon): > 50 µM

O=C(Cc1ccccc1)NC(c1ccc(Cl)cc1)c1c(O)ccc2ccccc12 (stereo not drawn)
GI50 (COLO 205 colon): 1.98 µM
TGI (COLO 205 colon): 3.48 µM
GI50 (HCC-2998 colon): 3.2 µM
TGI (HCC-2998 colon): 12.2 µM
GI50 (HCT-116 colon): 2.17 µM
TGI (HCT-116 colon): 5.16 µM
GI50 (HOP-92 NSCLC): 2.77 µM
TGI (HOP-92 NSCLC): 7.24 µM
GI50 (HT29 colon): 3.74 µM
TGI (HT29 colon): 11.3 µM
GI50 (NCI-H460 lung): 2.66 µM
TGI (NCI-H460 lung): 7.61 µM
GI50 (NCI/ADR-RES ovarian): 3.41 µM
TGI (NCI/ADR-RES ovarian): 11.5 µM
GI50 (OVCAR-3 ovarian): 2.97 µM
TGI (OVCAR-3 ovarian): 7.64 µM
GI50 (OVCAR-5 ovarian): 3.16 µM
TGI (OVCAR-5 ovarian): 10.2 µM
GI50 (SW-620 colon): 3.22 µM
TGI (SW-620 colon): 13.4 µM

COc1cc(/C=C2\C(=O)N(c3ccccc3)c3ccccc32)cc(OC)c1OC
GI50 (COLO 205 colon): 14.4 µM
TGI (COLO 205 colon): 71.3 µM
GI50 (HCC-2998 colon): 10.6 µM
TGI (HCC-2998 colon): 23.9 µM
GI50 (HCT-116 colon): 3.47 µM
TGI (HCT-116 colon): 12.4 µM
GI50 (HOP-92 NSCLC): 3.71 µM
TGI (HOP-92 NSCLC): 20.7 µM
GI50 (HT29 colon): 3.7 µM
TGI (HT29 colon): 13.9 µM
GI50 (NCI-H460 lung): 3.82 µM
TGI (NCI-H460 lung): > 100 µM
GI50 (NCI/ADR-RES ovarian): 6.37 µM
TGI (NCI/ADR-RES ovarian): 27.1 µM
GI50 (OVCAR-3 ovarian): 5.93 µM
TGI (OVCAR-3 ovarian): 26.1 µM
GI50 (OVCAR-5 ovarian): 14.1 µM
TGI (OVCAR-5 ovarian): 29 µM
GI50 (SW-620 colon): 5.96 µM
TGI (SW-620 colon): > 100 µM
